From patent US9006139B2, “Active compound combinations” (Bayer Intellectual Property GmbH, priority 2009, dated 2015)
Read-outs that look alike come from different tables or passages of the source.

What was measured:
Type in all cases: in vivo
Botrytis cinerea = test: Botrytis test (beans)/protective; settings: Botrytis cinerea, 48 h, Table F, read-out: Efficacy in % found; for pest or weed control at 25 ppm: 25 ppm a.i.; for pest or weed control at 50 ppm: 50 ppm a.i.
Summary of the method: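 Young bean plants were sprayed with compound in acetone/dimethylacetamide plus emulsifier diluted in water; once dry, each leaf got 2 agar pieces bearing Botrytis cinerea. Plants were held dark at 20 °C and 100% relative humidity, and lesion size was scored after 2 days as efficacy, 0% matching untreated control and 100% meaning no disease.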

Phytophthora infestans = test: whole plant or invertebrate; settings: Phytophthora infestans, 72 h; for pest or weed control at 12.5 ppm: 12.5 ppm a.i.; for pest or weed control at 50 ppm: 50 ppm a.i.; for pest or weed control at 10 ppm: 10 ppm a.i.; for pest or weed control at 20 ppm: 20 ppm a.i.
Fusarium graminearum = settings: Table L; 500 ppm a.i.
Venturia inaequalis = test: Venturia test (apples)/protective; settings: Table D
Method: (§1) Solvent: 24.5 parts by weight of acetone
(§2) • 24.5 parts by weight of dimethylacetamide Emulsifier: 1 part by weight of alkylaryl polyglycol ether
(§3) To produce a suitable preparation of active compound, 1 part by weight of active compound is mixed with the stated amounts of solvent and emulsifier, and the concentrate is diluted with water to the desired concentration. To test for protective activity, young plants are sprayed with the preparation of active compound at the stated rate of application. After the spray coating has dried on, the plants are inoculated with an aqueous conidia suspension of the causal agent of apple scab (Venturia inaequalis) and then remain for 1 day in an incubation cabinet at approximately 20° C. and a relative atmospheric humidity of 100%. The plants are then placed in a greenhouse at approximately 21° C. and a relative atmospheric humidity of approximately 90%. The test is evaluated 10 days after the inoculation. 0% means an efficacy which corresponds to that of the control, while an efficacy of 100% means that no disease is observed.

Plasmopara viticola = test: Plasmopara test (grapevines)/protective; settings: Table B; 50 ppm a.i.
Method: as §1, §2
as §3, with “aqueous spore” for “aqueous conidia”, “of Plasmopara viticola” for “of the causal agent of apple scab (Venturia inaequalis)”, “The plant is subsequently” for “The plants are then”, “placed for 4 days” for “placed”, “The plants are then misted and placed for 1 day in an incubation cabinet. The” for “The”, “evaluated 6” for “evaluated 10”

Puccinia triticina = test: Puccinia triticina-test (wheat)/preventive; settings: Table M; 500 ppm a.i.
Method: Solvent: 49 parts by weight of n,n-dimethylacetamid
Emulsifier: 1 part by weight of alkylaryl polyglycol ether
To produce a suitable preparation of active compound, 1 part by weight of active compound or active compound combination is mixed with the stated amounts of solvent and emulsifier, and the concentrate is diluted with water to the desired concentration. To test for preventive activity, young plants are sprayed with the preparation of active compound or active compound combination at the stated rate of application. After the spray coating has been dried, the plants are sprayed with a spore suspension of Puccinia triticina. The plants remain for 48 hours in an incubation cabinet at approximately 20° C. and a relative atmospheric humidity of approximately 100%. The plants are placed in the greenhouse at a temperature of approximately 20° C. and a relative atmospheric humidity of approximately 80%. The test is evaluated 8 days after the inoculation. 0% means an efficacy which corresponds to that of the untreated control, while an efficacy of 100% means that no disease is observed.

[1] = read-out: Efficacy in % found, Table A, test 1
[2] = read-out: Efficacy in % found, Table A, test 5
[3] = read-out: Efficacy in % found, Table A, test 6

## Cn1c(=O)c2sc3c(=O)n(C)c(=O)c3sc2c1=O [(I-1), 2,6-dimethyl-1H,5H-[1,4]dithiino[2,3-c:5,6-c′]dipyrrole-1,3,5,7(2H,6H)-tetrone]
Botrytis cinerea; test 1
  pest or weed control at 25 ppm: 0%
  pest or weed control at 50 ppm: 45%
Botrytis cinerea; test 2
  pest or weed control at 25 ppm: 0%
  pest or weed control at 50 ppm: 40%
Botrytis cinerea; test 3, 12.5 ppm a.i.
  pest or weed control at 12.5 ppm: 0%
Botrytis cinerea; test 3
  pest or weed control at 50 ppm: 58%
Phytophthora infestans; [1]
  pest or weed control at 12.5 ppm: 0%
  pest or weed control at 50 ppm: 18%
Phytophthora infestans; read-out: Efficacy in % found, Table A, test 1, 25 ppm a.i.
  pest or weed control at 25 ppm: 5%
Phytophthora infestans; read-out: Efficacy in % found, Table A, test 2
  pest or weed control at 12.5 ppm: 35%
Phytophthora infestans; read-out: Efficacy in % found, Table A, test 3
  pest or weed control at 50 ppm: 36%
Phytophthora infestans; read-out: Efficacy in % found, Table A, test 4
  pest or weed control at 50 ppm: 47%
Phytophthora infestans; [2]
  pest or weed control at 10 ppm: 0%
  pest or weed control at 20 ppm: 0%
Phytophthora infestans; [3]
  pest or weed control at 10 ppm: 0%
  pest or weed control at 20 ppm: 9%
Phytophthora infestans; read-out: Efficacy in % found, Table A, test 6, 40 ppm a.i.
  pest or weed control at 40 ppm: 11%
Phytophthora infestans; read-out: Efficacy in % found, Table A, test 7
  pest or weed control at 12.5 ppm: 39%
Fusarium graminearum
  Efficacy in % found: 0%
Venturia inaequalis; test 1, 12.5 ppm a.i.
  Efficacy in % found: 26%
Venturia inaequalis; test 1, 25 ppm a.i.
  Efficacy in % found: 72%
Venturia inaequalis; test 2, 12.5 ppm a.i.
  Efficacy in % found: 14%
Plasmopara viticola
  Efficacy in % found: 54%
Puccinia triticina
  Efficacy in % found: 10%
